In BigSolDB 2.1:

CC(C)(c1cc(Br)c(O)c(Br)c1)c1cc(Br)c(O)c(Br)c1
solubility (mole fraction)
Settings	in ethanol	in ethyl acetate	in isopropanol	in methanol	in n-butanol	in n-butyl acetate	in n-pentanol	in n-propanol	in sec-butanol
298.15 K	0.0511	0.139	0.0242	0.0499	0.0511	0.142	0.0567	0.0452	0.0262
303.15 K	0.0516	0.139	0.0259	0.0511	0.0522	0.142	0.058	0.046	0.0288
308.15 K	0.0534	0.141	0.0284	0.0524	0.0542	0.144	0.0596	0.0476	0.0321
313.15 K	0.0558	0.144	0.031	0.0546	0.0573	0.146	0.0609	0.0502	0.0364
318.15 K	0.0577	0.147	0.0343	0.0564	0.0602	0.148	0.0634	0.0522	0.0399
323.15 K	0.0616	0.152	0.0381	0.0585	0.0642	0.151	0.0669	0.0553	0.045
328.15 K	0.0642	0.157	0.0435	0.0615	0.0678	0.155	0.0705	0.059	0.0502
333.15 K	0.0693	0.161	0.0484	–	0.0717	0.159	0.0752	0.063	0.056
